Four compounds from publication PMC6930638, “The Masked Polar Group Incorporation (MPGI) Strategy in Drug Design: Effects of Nitrogen Substitutions on Combretastatin and Isocombretastatin Tubulin Inhibitors” (Molecules, 2019) can be followed below.

Test [1] relates to MCF-7 breast adenocarcinoma. Nature of the test: MTT cell antiproliferative assay, MCF-7. It is filed as cell-based. As to conditions: Homo sapiens, MCF7, 72 h.
For test [2], the system named is HeLa, HT-29 and MCF-7 human tumor cell lines. Description: Antiproliferative activity over the three human tumor cell lines (MTT). The test is classed as cell-based. The conditions noted are these: Homo sapiens, range over the cell lines, Table S1; read-out: Cytotoxicity range (range of antiproliferative IC50 values).
Test [3] deals with HT-29 colon adenocarcinoma. Description: MTT cell antiproliferative assay, HT-29 (without or with verapamil). It is filed as cell-based, human. As to conditions: Homo sapiens, HT-29; MTT, 72 h. The procedure:
The in vitro antiproliferative activity of the synthesized compounds was evaluated by a colorimetric reaction, using the MTT reagent. They were tested against three different human tumor cell lines: HeLa cervix epithelioid carcinoma, HT-29 colon adenocarcinoma, and MCF-7 breast adenocarcinoma. […] Moving the alkylamino substituent from a para to a meta position with respect to the bridge results in potency reduction, except for the phenstatin analogue 1f. However, the introduction of a nitrogen atom to form 2-dimethylaminopyridine derivatives entails a loss of activity, both for phenstatin analogues (1b, 2b), while for isocombretastatins, it only involves a 2–3 times potency decrease (3b). For combretastatins, it implies an improvement in the cytotoxicity values down to tenths of nanomolar (8b). […] On the other hand, the best 2-dimethylaminopyridine was combretastatin 8b. All ammonium salts derivatives were not cytotoxic at micromolar concentrations.
As observed in Table 1, there are no significant changes in the IC50 values for most compounds, except for combretastatins 8a and 8i.
Acquired resistance to antitumor drugs is one of the more important problems of chemotherapy, also affecting tubulin-targeting drugs. In order to ascertain the impact of multidrug resistance phenotypes on the action of the compounds, we have measured the cell proliferation inhibitory activity of HT-29 cells in the presence of verapamil, a known P-glycoprotein 1/multidrug resistance protein 1 (MDR1) inhibitor at a concentration of 10 µM, not affecting cell proliferation. […] Except for the combretastatin analogues 8a and 8i, the affected drugs are all pyridine drugs.
HeLa (human cervical carcinoma) and MCF-7 (human breast carcinoma) cell lines were cultured in Dulbecco’s Modified Eagles Medium (DMEM) supplemented with 2 mM L-glutamine (Lonza-Cambrex, Karlskoga, Sweden), 10% (v/v) heat inactivated fetal bovine serum (HIFBS) (Lonza-Cambrex) and 100 μg/mL streptomycin-100 IU/mL penicillin (Lonza-Cambrex) at 37 °C in humidified 95% air and 5% CO2. HT-29 (human colon carcinoma) cells were cultured at 37 °C in complete RPMI 1640 medium containing 2 mM L-glutamine, 10% (v/v) HIFBS and 100 μg/mL streptomycin-100 IU/mL penicillin in humidified 95% air and 5% CO2 atmosphere.
The effect of the different compounds on the proliferation of human cell lines was determined by using the MTT (3-[4,5-dimethylthiazol-2-yl]-2,5-diphenyltetrazolium bromide) reagent (MTT Thiazolyl Blue Tetrazolium Bromide, Sigma-Aldrich, St. Louis, MO, USA) dissolved in PBS 5 mg/mL. Cell viability was evaluated seeding 100 µL of cells in exponential growth phase with appropriate cell line concentration (1.5 × 10^4 HeLa and MCF-7 cells/mL and 3 × 10^4 HT-29 cells/mL) in complete medium in 96-well plates at 37 °C and 5% CO2. After 24 h incubation to allow cells to attach to the plates the ligands were added at different concentrations from 10^−5 to 10^−9 M. The effect on the proliferation was evaluated 72 h post-treatment by adding the MTT reagent (10 µL/well) to a final concentration of 0.5 mg/mL and the plate was further incubated for another 3 h. After this period, the supernatant was removed, the MTT violet crystals formed on the bottom of each well were dissolved in DMSO (100 µL/well) and subsequently, the absorbance of the color complex was read at 570 nm using a multi-well plate reader. Compounds were dissolved in dimethyl sulfoxide (DMSO) and the final solvent concentrations never exceeded 0.5% (v/v). The control wells included treated cells with 0.5% (v/v) DMSO and the positive control. Measurements were performed in triplicate, and each experiment was repeated three times. […] Nonlinear curves fitting the experimental data were carried out for each compound.

pIC50: −log10 of the molar value.

As for `C=C(c1ccc(N(C)C)nc1)c1cc(OC)c(OC)c(OC)c1` [Compound 3b, N,N-Dimethyl-5-(1-(3,4,5-trimethoxyphenyl)vinyl)pyridin-2-amine], the figures for the negative logarithm of the IC50 (pIC50) in test [1], in test [2] and in test [3] were 7.09, 6.56 to 7.09 and 6.56, respectively.

For `COc1cc(C=Cc2ccc(N(C)C)nc2)cc(OC)c1OC` [Compound 8b, N,N-dimethyl-5-(3,4,5-trimethoxystyryl)pyridin-2-amine], the figures for the pIC50 in test [1], in test [2] and in test [3] were 7.20, 7.10 to 7.24 and 7.11, respectively.

As for `COc1cc(C(=O)c2ccnc(N3CCCC3)c2)cc(OC)c1OC` [Compound 1h, (2-(Pyrrolidin-1-yl)pyridin-4-yl)(3,4,5-trimethoxyphenyl)methanone], the pIC50 in test [1] is 7.77; in test [2] it was 7.15 to 7.77; in test [3] it was 7.15.

As for `COc1cc(C(=O)c2cccc(N(C)C)c2)cc(OC)c1OC` [Compound 1f, (3-(Dimethylamino)phenyl)(3,4,5-trimethoxyphenyl)methanone], the negative-log IC50 (pIC50) in test [1] was 6.49; in test [2] it was 6.34 to 6.74; in test [3], 6.34.
